Data: article PMC6222927, “Aminobenzosuberone Scaffold as a Modular Chemical Tool for the Inhibition of Therapeutically Relevant M1 Aminopeptidases” (Molecules : A Journal of Synthetic Chemistry and Natural …, 2018)
Like-named read-outs stand apart in the source and are kept apart here.

Assays:
E. coli rEcPepN = E. coli rEcPepN (Escherichia coli, UniProt P04825); test: rEcPepN inhibition, Leu-pNA substrate, Dixon method; type: biochemical
Description: Enzyme activity assays were carried out in 10 mM Tris-HCl buffer at pH 7.5 with 150 mM NaCl, enzyme, 100 µM substrate (Leu-pNA) in a 100 μL reaction at 37 °C. The absorbance was read at 405 nm. Concentrations ranging from 1 nM to 100 μM of inhibitors (dissolved in DMSO) were incubated with each of the enzymes ([…]) for 30 min at 37 °C in a 96 well plate. After addition of the substrate, immediate increase in absorption was measured. All inhibition assays were performed in triplicates and initial velocities were measured. Percentage inhibition and log values of inhibitor concentrations were plotted using SigmaPlot to determine IC50 values. Ki values were determined by the Dixon method. The assay consists of reaction buffer, enzyme and varied concentrations of Leu-pNA (25, 50, 100, 200 and 400 µM). […] Data were plotted as 1/rate versus inhibitor concentration for each substrate concentration and a linear fit was calculated by non-linear regression using SigmaPlot12.5. All the reactions were performed in triplicates, SD values were reported.

[1] = target: T1, human endoplasmic reticulum aminopeptidase 2 (rHsERAP2) (Homo sapiens, UniProt Q6P179); test: rHsERAP2 inhibition, R-AMC fluorigenic substrate; type: biochemical; conditions: 50 µM R-AMC
T1 construct: made in house; host or cells: Hi5 insect cells (baculovirus produced in sf9)
Description: (§1) The enzymatic activity of HsERAP1, HsERAP2 and HsIRAP was determined by following the time-dependent increase in fluorescence at 460 nm (excitation: 380 nm) of the fluorigenic substrates L-Leucine-7-amido-4-methyl coumarin (L-AMC; Sigma, Darmstatd, Germany) for HsERAP1 and HsIRAP and L-arginyl-7-amido-4-methyl coumarin (R-AMC; Sigma) for HsERAP2. […] The reaction was followed for 10 min at room temperature and the remaining enzymatic activity was calculated by measuring the slope of the time course.

P. falciparum rPfAM1 = target: T2, P. falciparum rPfAM1 (Plasmodium falciparum, UniProt O96935); design: method as in PMID 28934959; conditions: read-out: Ki rPfAM1; cited from earlier work
T2 construct: made in house; host or cells: Escherichia coli Rosetta 2 (DE3)
T2 sequence (O96935 1-1085): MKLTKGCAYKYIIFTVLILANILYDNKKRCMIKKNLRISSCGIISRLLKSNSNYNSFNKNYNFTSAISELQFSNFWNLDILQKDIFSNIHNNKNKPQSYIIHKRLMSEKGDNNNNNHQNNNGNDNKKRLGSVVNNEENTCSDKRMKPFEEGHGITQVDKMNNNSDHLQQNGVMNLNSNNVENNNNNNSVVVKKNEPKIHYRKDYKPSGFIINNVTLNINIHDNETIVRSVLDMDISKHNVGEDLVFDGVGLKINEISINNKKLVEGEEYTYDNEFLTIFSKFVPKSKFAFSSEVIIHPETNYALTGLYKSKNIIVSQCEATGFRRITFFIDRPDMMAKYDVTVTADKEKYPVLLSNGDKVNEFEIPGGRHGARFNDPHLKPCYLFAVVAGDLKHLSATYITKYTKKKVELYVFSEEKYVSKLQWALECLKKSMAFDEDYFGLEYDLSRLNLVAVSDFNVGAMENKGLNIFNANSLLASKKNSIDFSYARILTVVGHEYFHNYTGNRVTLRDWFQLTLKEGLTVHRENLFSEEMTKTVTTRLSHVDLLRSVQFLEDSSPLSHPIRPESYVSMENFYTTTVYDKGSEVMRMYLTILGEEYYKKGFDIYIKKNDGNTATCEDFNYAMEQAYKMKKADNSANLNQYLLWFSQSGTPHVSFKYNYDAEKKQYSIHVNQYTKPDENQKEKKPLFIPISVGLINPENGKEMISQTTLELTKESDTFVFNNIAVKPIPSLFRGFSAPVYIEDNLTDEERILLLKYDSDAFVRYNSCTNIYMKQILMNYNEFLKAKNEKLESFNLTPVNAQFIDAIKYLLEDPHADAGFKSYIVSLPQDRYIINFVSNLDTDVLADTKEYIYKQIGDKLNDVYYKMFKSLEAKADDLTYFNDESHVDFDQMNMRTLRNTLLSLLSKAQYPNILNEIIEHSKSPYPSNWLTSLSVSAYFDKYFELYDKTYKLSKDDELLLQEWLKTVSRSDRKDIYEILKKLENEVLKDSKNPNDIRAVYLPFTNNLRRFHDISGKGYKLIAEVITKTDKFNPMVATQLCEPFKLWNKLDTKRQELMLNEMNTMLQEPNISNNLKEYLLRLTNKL

[2] = target: human leukotriene A4 hydrolase (rHsLTA4H); design: method as in PMID 21843945; conditions: ref 58; cited from earlier work
P. falciparum rPfAM17 = target: T3, P. falciparum rPfAM17 (Plasmodium falciparum, UniProt Q8IL11); design: method as in PMID 28934959; conditions: ref 69; cited from earlier work
T3 construct: made in house; host or cells: Escherichia coli Rosetta 2 (DE3)
T3 sequence (Q8IL11 1-605): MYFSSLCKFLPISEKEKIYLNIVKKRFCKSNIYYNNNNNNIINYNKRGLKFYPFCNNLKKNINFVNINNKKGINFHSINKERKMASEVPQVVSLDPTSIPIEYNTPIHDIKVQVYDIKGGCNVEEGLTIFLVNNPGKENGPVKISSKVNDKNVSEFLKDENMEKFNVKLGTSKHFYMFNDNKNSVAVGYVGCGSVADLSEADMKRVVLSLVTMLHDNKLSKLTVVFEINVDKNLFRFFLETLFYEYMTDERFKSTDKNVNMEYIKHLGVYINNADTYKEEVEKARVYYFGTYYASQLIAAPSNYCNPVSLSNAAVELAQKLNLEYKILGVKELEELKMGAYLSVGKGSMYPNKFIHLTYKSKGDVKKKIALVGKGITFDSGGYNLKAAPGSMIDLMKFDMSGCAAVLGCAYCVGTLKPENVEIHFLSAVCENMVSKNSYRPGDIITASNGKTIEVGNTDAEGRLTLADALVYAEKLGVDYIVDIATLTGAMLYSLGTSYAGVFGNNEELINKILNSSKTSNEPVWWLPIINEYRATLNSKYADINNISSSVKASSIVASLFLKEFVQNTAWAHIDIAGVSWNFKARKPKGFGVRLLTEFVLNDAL

pAPN from porcine kidney = conditions: Dixon plots; cited from earlier work
[3] = Octanol/water partition coefficient (logD7.4) by reversed-phase HPLC; conditions: pH 7.4
Description: The flow was 0.9 mL/min. The aminobenzosuberone derivatives were dissolved at 0.4 µM in methanol. The standards were also dissolved in methanol. Column void volume was estimated from the retention time of uracil, which was included as a non-retained internal reference with each injection.

[4] = target: T4, human endoplasmic reticulum aminopeptidase 1 (rHsERAP1) (Homo sapiens, UniProt Q9NZ08); test: rHsERAP1 inhibition, L-AMC fluorigenic substrate; type: biochemical; conditions: 50 µM L-AMC
T4 construct: made in house; host or cells: Hi5 insect cells (baculovirus produced in sf9)
Description: as §1

[5] = target: aminopeptidase from A. proteolytica (AAP); design: method as in PMID 21843945; conditions: ref 58; cited from earlier work
[6] = target: human puromycine sensitive aminopeptidase (rHsPSA) (Homo sapiens, UniProt P55786); test: rHsPSA inhibition, Leu-pNA substrate, Dixon method; type: biochemical; conditions: triplicate, SD
Description: Enzyme activity assays were carried out in 10 mM Tris-HCl buffer at pH 7.5 with 150 mM NaCl, enzyme, 100 µM substrate (Leu-pNA) in a 100 μL reaction at 37 °C. The absorbance was read at 405 nm. Concentrations ranging from 1 nM to 100 μM of inhibitors (dissolved in DMSO) were incubated with each of the enzymes ([…]) for 30 min at 37 °C in a 96 well plate. After addition of the substrate, immediate increase in absorption was measured. All inhibition assays were performed in triplicates and initial velocities were measured. Percentage inhibition and log values of inhibitor concentrations were plotted using SigmaPlot to determine IC50 values. Ki values were determined by the Dixon method. The assay consists of reaction buffer, enzyme and varied concentrations of Leu-pNA (25, 50, 100, 200 and 400 µM). […]. All the reactions were performed in triplicates, SD values were reported.

[7] = target: human arginyl aminopeptidase B (HsAPB); conditions: cited from earlier work
[8] = tested on: E. coli (EcPepN) M1 aminopeptidase; conditions: ref 43; cited from earlier work
[9] = target: human endoplasmic reticulum aminopeptidase 1 (HsERAP1); conditions: ref 41; cited from earlier work
[10] = target: bimetallic aminopeptidase from A. proteolytica (AAP); design: method as in PMID 21292493; conditions: ref 42; cited from earlier work
[11] = target: P. falciparum M17 aminopeptidase (PfAM17); conditions: ref 45; cited from earlier work
[12] = target: mammalian cytosolic leucine aminopeptidase (mLAPc); conditions: cited from earlier work
[13] = target: P. falciparum (PfAM1) M1 aminopeptidase; conditions: ref 44; cited from earlier work
[14] = target: human puromycine sensitive aminopeptidase (HsPSA); conditions: ref 37; cited from earlier work
[15] = target: mammalian aminopeptidase N (mAPN); conditions: cited from earlier work
[16] = target: human Leucyl-cystinyl aminopeptidase (HsIRAP); conditions: ref 48; cited from earlier work

Sequence of human puromycine sensitive aminopeptidase (rHsPSA) (P55786 whole entry): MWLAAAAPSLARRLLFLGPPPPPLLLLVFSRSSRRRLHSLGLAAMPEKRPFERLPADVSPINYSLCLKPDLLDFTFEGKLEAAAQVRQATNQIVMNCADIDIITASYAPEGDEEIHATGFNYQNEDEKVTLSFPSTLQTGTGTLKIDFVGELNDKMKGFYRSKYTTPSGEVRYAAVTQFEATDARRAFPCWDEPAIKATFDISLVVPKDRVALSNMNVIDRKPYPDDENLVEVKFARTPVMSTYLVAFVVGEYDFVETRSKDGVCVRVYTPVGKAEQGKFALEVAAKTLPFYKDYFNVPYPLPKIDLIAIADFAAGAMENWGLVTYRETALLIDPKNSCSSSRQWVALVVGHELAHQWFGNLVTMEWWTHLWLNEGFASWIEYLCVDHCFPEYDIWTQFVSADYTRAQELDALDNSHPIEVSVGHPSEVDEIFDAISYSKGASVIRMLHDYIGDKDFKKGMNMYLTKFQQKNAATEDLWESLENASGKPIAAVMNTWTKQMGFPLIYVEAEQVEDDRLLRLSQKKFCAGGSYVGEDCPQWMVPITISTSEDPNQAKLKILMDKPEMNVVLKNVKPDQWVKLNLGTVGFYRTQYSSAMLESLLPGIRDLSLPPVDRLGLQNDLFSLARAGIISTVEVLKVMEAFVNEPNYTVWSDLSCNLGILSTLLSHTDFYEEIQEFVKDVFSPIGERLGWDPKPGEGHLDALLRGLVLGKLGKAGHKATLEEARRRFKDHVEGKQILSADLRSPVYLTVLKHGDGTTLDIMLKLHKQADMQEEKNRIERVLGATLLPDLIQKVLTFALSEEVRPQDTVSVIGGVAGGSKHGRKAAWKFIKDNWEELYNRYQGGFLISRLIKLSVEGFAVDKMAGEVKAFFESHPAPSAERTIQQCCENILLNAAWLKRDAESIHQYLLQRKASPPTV
T4 sequence (Q9NZ08 whole entry): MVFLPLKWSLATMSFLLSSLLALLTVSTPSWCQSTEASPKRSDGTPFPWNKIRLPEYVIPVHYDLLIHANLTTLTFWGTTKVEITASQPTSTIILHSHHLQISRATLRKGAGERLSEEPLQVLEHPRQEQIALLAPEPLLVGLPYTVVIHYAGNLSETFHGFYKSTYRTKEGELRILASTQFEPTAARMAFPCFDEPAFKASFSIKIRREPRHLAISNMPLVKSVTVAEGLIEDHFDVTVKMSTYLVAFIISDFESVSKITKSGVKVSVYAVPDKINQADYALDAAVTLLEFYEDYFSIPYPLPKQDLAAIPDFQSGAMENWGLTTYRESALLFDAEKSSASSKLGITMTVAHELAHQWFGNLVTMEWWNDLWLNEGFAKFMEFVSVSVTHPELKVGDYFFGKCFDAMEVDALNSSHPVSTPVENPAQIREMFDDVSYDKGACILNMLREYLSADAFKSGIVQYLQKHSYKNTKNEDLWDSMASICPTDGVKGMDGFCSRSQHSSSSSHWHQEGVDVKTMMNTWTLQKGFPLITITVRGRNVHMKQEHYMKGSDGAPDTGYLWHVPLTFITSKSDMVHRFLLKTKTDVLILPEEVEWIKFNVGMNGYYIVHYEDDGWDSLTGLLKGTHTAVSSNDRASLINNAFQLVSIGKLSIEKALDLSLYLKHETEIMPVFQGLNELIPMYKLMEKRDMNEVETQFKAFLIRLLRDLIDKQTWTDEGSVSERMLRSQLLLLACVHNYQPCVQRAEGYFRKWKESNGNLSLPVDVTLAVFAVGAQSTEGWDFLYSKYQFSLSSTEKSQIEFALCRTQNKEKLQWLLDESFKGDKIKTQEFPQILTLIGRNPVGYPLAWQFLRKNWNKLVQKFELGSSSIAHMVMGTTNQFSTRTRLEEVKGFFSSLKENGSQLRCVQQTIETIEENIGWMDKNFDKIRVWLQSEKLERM
T1 sequence (Q6P179 whole entry): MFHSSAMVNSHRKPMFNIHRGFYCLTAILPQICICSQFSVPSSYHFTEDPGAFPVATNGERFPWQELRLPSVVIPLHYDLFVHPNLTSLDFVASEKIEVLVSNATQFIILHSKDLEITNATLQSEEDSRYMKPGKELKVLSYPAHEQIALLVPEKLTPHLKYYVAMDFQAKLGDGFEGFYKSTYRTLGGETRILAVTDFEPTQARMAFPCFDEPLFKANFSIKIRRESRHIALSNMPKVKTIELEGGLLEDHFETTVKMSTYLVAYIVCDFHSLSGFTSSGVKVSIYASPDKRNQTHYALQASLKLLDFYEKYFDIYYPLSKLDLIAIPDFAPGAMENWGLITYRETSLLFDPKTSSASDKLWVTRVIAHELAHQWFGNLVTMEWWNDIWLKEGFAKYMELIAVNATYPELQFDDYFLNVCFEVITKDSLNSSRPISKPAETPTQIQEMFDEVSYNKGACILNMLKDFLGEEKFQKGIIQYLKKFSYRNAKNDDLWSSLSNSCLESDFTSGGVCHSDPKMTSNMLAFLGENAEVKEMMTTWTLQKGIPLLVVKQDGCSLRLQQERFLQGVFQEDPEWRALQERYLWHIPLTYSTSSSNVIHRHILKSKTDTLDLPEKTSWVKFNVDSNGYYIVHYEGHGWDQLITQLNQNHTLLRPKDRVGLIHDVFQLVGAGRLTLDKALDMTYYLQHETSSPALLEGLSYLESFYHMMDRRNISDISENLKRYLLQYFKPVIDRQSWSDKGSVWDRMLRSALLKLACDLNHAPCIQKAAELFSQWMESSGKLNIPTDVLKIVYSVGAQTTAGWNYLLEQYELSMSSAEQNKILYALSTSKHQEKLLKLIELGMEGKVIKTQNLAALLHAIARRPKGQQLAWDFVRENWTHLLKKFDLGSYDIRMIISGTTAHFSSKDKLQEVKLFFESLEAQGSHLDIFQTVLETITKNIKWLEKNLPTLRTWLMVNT
Sequence of E. coli rEcPepN (P04825 whole entry): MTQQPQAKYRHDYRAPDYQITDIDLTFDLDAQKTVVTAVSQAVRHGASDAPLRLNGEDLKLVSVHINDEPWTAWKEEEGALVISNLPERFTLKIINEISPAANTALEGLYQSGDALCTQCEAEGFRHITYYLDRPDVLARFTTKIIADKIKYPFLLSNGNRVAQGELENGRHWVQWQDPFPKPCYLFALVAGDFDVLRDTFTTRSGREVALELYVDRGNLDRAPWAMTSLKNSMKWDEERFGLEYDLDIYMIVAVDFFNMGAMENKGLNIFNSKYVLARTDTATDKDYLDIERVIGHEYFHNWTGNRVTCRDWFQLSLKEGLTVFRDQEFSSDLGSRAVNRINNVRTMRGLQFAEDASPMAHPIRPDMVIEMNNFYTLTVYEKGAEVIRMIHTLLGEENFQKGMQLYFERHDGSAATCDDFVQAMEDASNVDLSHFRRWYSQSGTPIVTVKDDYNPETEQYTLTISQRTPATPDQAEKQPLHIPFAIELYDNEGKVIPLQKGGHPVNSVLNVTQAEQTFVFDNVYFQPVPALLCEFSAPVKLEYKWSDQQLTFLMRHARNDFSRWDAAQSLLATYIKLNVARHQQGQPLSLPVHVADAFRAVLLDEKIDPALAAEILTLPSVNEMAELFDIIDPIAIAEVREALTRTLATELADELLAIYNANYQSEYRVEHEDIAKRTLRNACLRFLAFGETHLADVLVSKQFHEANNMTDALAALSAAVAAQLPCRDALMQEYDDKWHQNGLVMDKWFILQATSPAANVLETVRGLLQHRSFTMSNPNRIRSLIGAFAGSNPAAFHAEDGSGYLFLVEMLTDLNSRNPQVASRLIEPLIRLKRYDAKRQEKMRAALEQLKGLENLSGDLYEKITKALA

NC1CCc2cccc(-c3ccccc3)c2CC1=O (centres unmarked) [21c]
Ki (E. coli rEcPepN): 160 ± 12 nM
IC50 [1]: 18 ± 1.3 µM
Ki (P. falciparum rPfAM1): 50 ± 5 nM
Ki [2]: 19 µM
Ki (P. falciparum rPfAM17): > 100 µM
Ki (pAPN from porcine kidney): 7 nM
chromatographic logD [3]: 2.12
IC50 [4]: 63 ± 3 µM
Ki [5]: 28 µM
Ki [6]: 50 ± 4 nM

CC(C)C[C@H](NC(=O)[C@@H](O)[C@H](N)Cc1ccccc1)C(=O)O [compound 1, Bestatin]
Ki ([7]; ref 38): 6 µM
Ki ([7]; ref 39): 0.014 µM
IC50 [8]: 7.3 µM
Ki [9]: 11.2 µM
Ki [10]: 1.6 nM
Ki [11]: 25 nM
Ki ([12]; ref 38): 0.6 nM
Ki ([12]; ref 39): 20 nM
Ki [13]: 190 nM
IC50 [14]: 350 nM
IC50 ([15]; ref 37): 300 nM
Ki ([15]; ref 40): 89 µM

C#CC[C@H](CP(=O)(O)[C@@H](N)CCc1ccccc1)C(=O)N[C@@H](Cc1ccccc1)C(N)=O [compound 3]
IC50 [16]: 2 nM
